According to US11649222B2, “Compounds” (UNIVERSITETET I OSLO, priority 2016, dated 2023):
Several values for one entry are separate records, joined by “and”; a condition that tells them apart may be missing. Identical values can stand only once.

Experiments:
[1] = test system: Klebsiella pneumoniae strain 50752501 harbouring NDM-1; assay: In vivo peritonitis infection study in neutropenic mice; parameters: Score at sampling: scale not given here; conditions: for Blood log CFU/ml mean / Blood log CFU/ml / Score at sampling / Pf log CFU/ml mean / Pf log CFU/ml: sampling T = 5; for Blood log CFU/ml / Score at sampling / Pf log CFU/ml: individual mice; for Pf log CFU/ml mean / Pf log CFU/ml: peritoneal fluid
Protocol: The purpose of this study was to investigate the synergy between a typical example of the present invention and a state of art carbapenem in a clinically relevant multiresistant Gram-negative bacterial strain harboring a metallo-β-lactamase in the treatment of live mice infected with the bacterial strain.
The mice were rendered neutropenic by injecting 0.5 ml cyclophosphamide solution intraperitoneally 4 days (approximately 200 mg/kg) and 1 day (approximately 100 mg/kg) prior to inoculation.
Fresh overnight colonies from a 5% Horse Blood Agar plate were suspended and diluted in sterile saline to approximately and 10^7 CFU/ml. Mice were inoculated intraperitoneally with 0.5 ml of the suspension. Approximately ½ hr prior to inoculation, mice were treated orally with 45 μl neurophen (20 mg ibuprofen/ml corresponding to approximately 30 mg/kg) as a pain relief.
Mice were treated subcutaneously in the neck region with.
Colony counts were determined from blood and peritoneal fluid at 1 and 5 hrs post inoculation. […] The mice were sacrificed immediately after blood sampling and a total of 2 ml sterile saline was injected i.p. and the abdomen gently massaged before it was opened and fluid sampled with a pipette. Each sample was then 10 fold serial diluted in saline and 20-μl spots, ranging from undiluted to a 10^6 dilution, were applied on agar plates in duplicates. […] All agar plates were incubated 18-22 hrs at 35° C. in ambient air.

[2] = test system: Klebsiella pneumoniae harboring NDM-1; assay: Time-kill study with meropenem; assay type: cell-based
Protocol: Mueller-Hinton broth (MHB) was warmed from fridge temperature cold. […] A sample of Example 26 was dissolved in DMSO.
The 96-well plates were prepared using a multi-channel pipette, adding […] PBS to columns 2-9, or the required number of dilutions needed in the experiment. Each Inoculum was prepared by picking a single colony from the fresh plate that was disperged into 1 mL MHB, the loop was agitated to ensure all the colony comes off the loop. The tube was Vortex mixed, and a 100 μL aliquot was taken from the tube into 9.9 mL of MHB into the media bottle. […] The procedure was repeated for as many samples needed in the study. Aliquots of 5 mL inoculum were transferred to as many media bottles as needed, e.g. 4 mg/L MEM, 4 mg/L MEM+50 μM test substance, 4 mg/L MEM+100 μM test substance. Then […] aliquots were taken from each culture and added to Column 1 on the 96 well plate, e.g. culture 1: 50 μl into A1, […] into B1 etc. for time point 0 h. Then […] MEM was added into each bottle, followed by the required amount of test substance. The bottles were mixed gently to avoid formation of bubbles, and incubated in a secondary container at 37° C. at 180 rpm. Finally, serial dilutions were performed using multi-channel pipette taking 30 μL for column 1, adding to column 2, mixing well, repeating from column 2 to 3 with clean pipette tips.

P. mirabilis (NDM-1) = assay: Microbroth dilution MIC of meropenem ± 25 mg/L inhibitor; assay type: cell-based
Protocol: (§1) • Plate bacterial strain(s) on appropriate media: • Gram-negative bacteria with ESBLs or carbapenemases: green agar plates with 100 mg/L ampicillin • Gram-negative bacteria without β-lactamases: green agar plates • Gram-positive bacteria (Staphylococci and Enterococci): blood agar plates • Incubate o.n. at 37° C. Day 2: Prepare the Bacterial Inoculum: • Prepare a 0.5 McFarland suspension of bacteria in 0.85% NaCl. (Should be used within 15 min of preparation). • Dilute the 0.5 McFarland suspension 1:100 into MH broth. Check the inoculum by diluting the prepared bacterial suspension 1:100 (10 μl bacterial suspension+990 μl 0.85% NaCl). Plate 10 μl of the dilution on MH agar plates (×2). Incubate o.n. at 37° C., count the colonies and calculate the final CFU/ml inoculum in the plate by multiplying the average number of colonies with 10000 and divide by 2. The final inoculum should be between 3-7×10^5 CFU/ml. • Add 50 μl of the prepared bacterial suspension to each well in the microtiter plate except negative growth control. Preparation of Compounds/Antibiotics • Calculate the desired concentration-range and volume of the compounds/antibiotics in the assay. […] Dilute the stock solution in MH broth. Make subsequent 2-fold dilutions in MH broth of the desired concentrations if a concentration range is to be tested (remember the extra dilution factor in the assay plate). Always include extra volume for pipetting. Take into consideration stock solutions that are made in buffers that have an effect on bacterial growth (e.g. DMSO).

K. pneumoniae (NDM-7) = assay: as above; assay type: cell-based
Protocol: as §1

K. pneumoniae (NDM-1) = assay: as above; assay type: cell-based
Protocol: as §1

P. stuartii (NDM) = assay: as above; assay type: cell-based
Protocol: as §1

C. freundii (NDM) = assay: as above; assay type: cell-based
Protocol: as §1

E. coli (VIM-1) = assay: as above; assay type: cell-based
Protocol: as §1

P. stuartii (NDM-1) = assay: as above; assay type: cell-based
Protocol: as §1

C. freundii (NDM-1) = assay: as above; assay type: cell-based
Protocol: as §1

E. cloacae (VIM) = assay: as above; assay type: cell-based
Protocol: as §1

K. pneumoniae (VIM) = assay: as above; assay type: cell-based
Protocol: as §1

[3] = test system: M. morganii (OXA48+ NDM-1); assay: as above; assay type: cell-based
Protocol: as §1

[4] = Example 26 10 mg/kg s.c. + meropenem 33 mg/kg
[5] = Example 26 10 mg/kg s.c. + vehicle
[6] = Example 26 10 mg/kg s.c. + vehicle, 10 mg/kg
[7] = Example 26 33 mg/kg s.c. + meropenem 33 mg/kg
[8] = Example 26 33 mg/kg s.c. + vehicle
[9] = Example 26 33 mg/kg s.c. + vehicle, 33 mg/kg
[10] = Example 26 100 mg/kg s.c. + meropenem 33 mg/kg
[11] = Example 26 100 mg/kg s.c. + vehicle
[12] = Example 26 100 mg/kg s.c. + vehicle, 100 mg/kg
[13] = combination treatment with Example 26 and meropenem
[14] = K. pneumoniae NDM-1 (several strains)
[15] = Klebsiella pneumoniae, read-out: MIC meropenem alone
[16] = Providencia stuartii, read-out: MIC meropenem alone
[17] = Citrobacter freundii, read-out: MIC meropenem alone

Structure (SMILES): CN(C[C@H](O)[C@@H](O)[C@H](O)[C@H](O)CO)C(=O)c1ccc(CN(Cc2ccccn2)Cc2ccccn2)nc1 [Example 26, 6-((bis(pyridin-2-ylmethyl)amino)methyl)-N-methyl-N-((2S,3R,4R,5R)-2,3,4,5,6-pentahydroxyhexyl)nicotinamide]
- reduction of the CFU levels compared to vehicle treatment in blood and peritoneal fluid ([1]; 10-100 mg/kg Example 26 alone): did not result in reduction of the CFU levels
- Blood log CFU/ml mean [1, 4]: 1.61 log CFU/ml
- Blood log CFU/ml [1, 4]: 1.90 log CFU/ml and 1.00 log CFU/ml and 1.85 log CFU/ml and 1.70 log CFU/ml
- Score at sampling [1, 4]: 2
- Blood log CFU/ml mean [1, 5]: 5.88 log CFU/ml
- Score at sampling [1, 5]: 2
- Blood log CFU/ml [1, 6]: 6.02 log CFU/ml and 5.70 log CFU/ml and 5.90 log CFU/ml and 5.89 log CFU/ml
- Blood log CFU/ml mean [1, 7]: 1.26 log CFU/ml
- Blood log CFU/ml [1, 7]: 1.78 log CFU/ml (2×) and 1.00 log CFU/ml and 0.50 log CFU/ml
- Score at sampling [1, 7]: 1
- Blood log CFU/ml mean [1, 8]: 5.89 log CFU/ml
- Score at sampling [1, 8]: 1
- Blood log CFU/ml [1, 9]: 5.83 log CFU/ml and 5.54 log CFU/ml and 6.78 log CFU/ml and 5.40 log CFU/ml
- Blood log CFU/ml mean [1, 10]: 1.18 log CFU/ml
- Blood log CFU/ml [1, 10]: 1.30 log CFU/ml and 0.50 log CFU/ml and 1.90 log CFU/ml and 1.00 log CFU/ml
- Score at sampling [1, 10]: 1
- Blood log CFU/ml mean [1, 11]: 5.84 log CFU/ml
- Score at sampling [1, 11]: 1
- Blood log CFU/ml [1, 12]: 5.83 log CFU/ml and 6.05 log CFU/ml and 5.48 log CFU/ml and 6.02 log CFU/ml
- lower CFU levels compared to vehicle treatment, blood [1, 13]: 3.95-4.38 log10
- lower CFU levels compared to vehicle treatment, peritoneal fluid [1, 13]: 3.57-3.66 log10
- Pf log CFU/ml mean [1, 4]: 3.83 log CFU/ml
- Pf log CFU/ml [1, 4]: 4.18 log CFU/ml and 3.83 log CFU/ml and 3.60 log CFU/ml and 3.72 log CFU/ml
- Pf log CFU/ml mean [1, 5]: 7.79 log CFU/ml
- Pf log CFU/ml [1, 6]: 7.92 log CFU/ml and 7.68 log CFU/ml and 7.76 log CFU/ml and 7.81 log CFU/ml
- Pf log CFU/ml mean [1, 7]: 3.80 log CFU/ml
- Pf log CFU/ml [1, 7]: 3.88 log CFU/ml and 3.80 log CFU/ml and 3.68 log CFU/ml and 3.85 log CFU/ml
- Pf log CFU/ml mean [1, 8]: 7.60 log CFU/ml
- Pf log CFU/ml [1, 9]: 7.68 log CFU/ml and 7.51 log CFU/ml and 7.88 log CFU/ml and 7.35 log CFU/ml
- Pf log CFU/ml mean [1, 10]: 3.74 log CFU/ml
- Pf log CFU/ml [1, 10]: 3.65 log CFU/ml (2×) and 3.74 log CFU/ml and 3.92 log CFU/ml
- Pf log CFU/ml mean [1, 11]: 7.93 log CFU/ml
- Pf log CFU/ml [1, 12]: 8.24 log CFU/ml and 7.89 log CFU/ml and 7.63 log CFU/ml and 7.98 log CFU/ml
- time after which CFU drops to below the limit of detection (LOD) ([2]; Example 26 + 4 mg/L meropenem, irrespective of the concentration of Example 26): 5 to 10 h
- period CFU stays below LOD ([2]; Example 26 + 4 mg/L meropenem, period of the study): ≥ 30 h
- MIC meropenem + 25 mg/L Example 26 (P. mirabilis (NDM-1)): 0.125 µg/mL
- MIC meropenem + 25 mg/L Example 26 (K. pneumoniae (NDM-7)): <0.03 µg/mL
- MIC meropenem + 25 mg/L Example 26 (K. pneumoniae (NDM-1); [14]): 0.125 µg/mL
- MIC meropenem + 25 mg/L Example 26 (P. stuartii (NDM)): 0.25 µg/mL
- MIC meropenem + 25 mg/L Example 26 (C. freundii (NDM)): 0.06 µg/mL
- MIC meropenem + 25 mg/L Example 26 (E. coli (VIM-1)): <0.03 µg/mL
- MIC meropenem + 25 mg/L Example 26 (P. stuartii (NDM-1)): 0.06 µg/mL
- MIC meropenem + 25 mg/L Example 26 (C. freundii (NDM-1)): 0.06 µg/mL
- MIC meropenem + 25 mg/L Example 26 (E. cloacae (VIM)): <0.03 µg/mL
- MIC meropenem + 25 mg/L Example 26 (K. pneumoniae (VIM)): 0.06 µg/mL
- MIC meropenem + 25 mg/L Example 26 [3]: 1 µg/mL

Structure (SMILES): C[C@@H](O)[C@H]1C(=O)N2C(C(=O)O)=C(S[C@@H]3CN[C@H](C(=O)N(C)C)C3)[C@H](C)[C@H]12 [meropenem, reference compound]
- lower CFU levels compared to vehicle treatment, blood ([1]; meropenem alone): 2.5 log10
- lower CFU levels compared to vehicle treatment, peritoneal fluid ([1]; meropenem alone): 2.2 log10
- Pf log CFU/ml mean ([1]; vehicle + meropenem 33 mg/kg): 5.22 log CFU/ml
- Pf log CFU/ml ([1]; vehicle + meropenem 33 mg/kg): 5.72 log CFU/ml and 4.60 log CFU/ml and 5.30 log CFU/ml and 5.24 log CFU/ml
- Blood log CFU/ml mean ([1]; vehicle + meropenem 33 mg/kg): 2.98 log CFU/ml
- Blood log CFU/ml ([1]; vehicle + meropenem 33 mg/kg): 3.51 log CFU/ml (2×) and 2.80 log CFU/ml and 2.10 log CFU/ml
- Score at sampling ([1]; vehicle + meropenem 33 mg/kg): 2
- time after which CFU starts to increase ([2]; 4 mg/L meropenem alone): about 5 hours
- MIC (P. mirabilis (NDM-1); Proteus mirabilis, read-out: MIC meropenem alone): 32 µg/mL
- MIC (K. pneumoniae (NDM-7); [15]): 64 µg/mL
- MIC meropenem alone (K. pneumoniae (NDM-1); [14]): 32 µg/mL
- MIC (K. pneumoniae (NDM-1); Klebsiella pneumoniae, read-out: MIC meropenem alone, K. pneumoniae NDM-1 (several strains)): 64 µg/mL
- MIC (P. stuartii (NDM); [16]): 64 µg/mL
- MIC (C. freundii (NDM); [17]): 16 µg/mL
- MIC (E. coli (VIM-1); Escherichia coli, read-out: MIC meropenem alone): 0.5 µg/mL
- MIC (P. stuartii (NDM-1); [16]): 8 µg/mL
- MIC (C. freundii (NDM-1); [17]): 4 µg/mL
- MIC (E. cloacae (VIM); Enterobacter cloacae, read-out: MIC meropenem alone): 8 µg/mL
- MIC (K. pneumoniae (VIM); [15]): 4 µg/mL
- MIC ([3]; Morganella morganii, read-out: MIC meropenem alone): 8 µg/mL
